The source made the active and inactive calls. The calls are words filed in the database; no cut-off is given here.
What was measured:
[1] = test system: Brassica rapa subsp. oleifera; test: Post-emergence herbicidal activity against one-leaf stage Brassica rapa subsp. oleifera under greenhouse condition assessed as complete bleaching of leaves at 600 g /ha measured after 24 days by spray method; type: functional, organism-based
[2] = test system: Brassica rapa subsp. oleifera; test: Post-emergence herbicidal activity against one-leaf stage Brassica rapa subsp. oleifera under greenhouse condition at 7.5 g /ha measured after 24 days by spray method; type: functional; conditions: 576 h, read-out: GI
[3] = test system: Brassica rapa subsp. oleifera; test: Post-emergence herbicidal activity against one-leaf stage Brassica rapa subsp. oleifera under greenhouse condition at 15 g /ha measured after 24 days by spray method; type: functional; conditions: 576 h, read-out: GI
[4] = test system: Brassica rapa subsp. oleifera; test: Post-emergence herbicidal activity against one-leaf stage Brassica rapa subsp. oleifera under greenhouse condition at 30 g /ha measured after 24 days by spray method; type: functional; conditions: 576 h, read-out: GI
[5] = test system: Brassica rapa subsp. oleifera; test: Post-emergence herbicidal activity against one-leaf stage Brassica rapa subsp. oleifera under greenhouse condition at 60 g /ha measured after 24 days by spray method; type: functional; conditions: 576 h, read-out: GI
[6] = test system: Brassica rapa subsp. oleifera; test: Post-emergence herbicidal activity against one-leaf stage Brassica rapa subsp. oleifera under greenhouse condition at 75 g /ha measured after 24 days by spray method; type: functional; conditions: 576 h, read-out: GI
[7] = test system: Brassica rapa subsp. oleifera; test: Post-emergence herbicidal activity against one-leaf stage Brassica rapa subsp. oleifera under greenhouse condition at 150 g /ha measured after 24 days by spray method; type: functional; conditions: 576 h, read-out: GI
[8] = test system: Brassica rapa subsp. oleifera; test: Post-emergence herbicidal activity against one-leaf stage Brassica rapa subsp. oleifera under greenhouse condition at 300 g /ha measured after 24 days by spray method; type: functional; conditions: 576 h, read-out: GI
[9] = test system: Brassica rapa subsp. oleifera; test: Post-emergence herbicidal activity against one-leaf stage Brassica rapa subsp. oleifera under greenhouse condition at 600 g /ha measured after 24 days by spray method; type: functional; conditions: 576 h, read-out: GI
Digitaria [10] = test: Post-emergence herbicidal activity against one-leaf stage of Digitaria adscendens under greenhouse condition at 750 g /ha measured after 24 days by spray method; type: functional; conditions: in Digitaria adscendens, 576 h, read-out: GI
Echinochloa crus-galli [11] = test: Post-emergence herbicidal activity against one-leaf stage of Echinochloa crus-galli (barnyard grass) under greenhouse condition at 750 g /ha measured after 24 days by spray method; type: functional; conditions: 576 h, read-out: GI
Amaranthus retroflexus [12] = test: Post-emergence herbicidal activity against one-leaf stage of Amaranthus retroflexus under greenhouse condition at 750 g /ha measured after 24 days by spray method; type: functional; conditions: 576 h, read-out: GI
[13] = test system: Brassica rapa subsp. oleifera; test: Post-emergence herbicidal activity against one-leaf stage Brassica rapa subsp. oleifera under greenhouse condition at 750 g /ha measured after 24 days by spray method; type: functional; conditions: 576 h, read-out: GI
Digitaria [14] = test: Pre-emergence herbicidal activity against Digitaria adscendens under greenhouse condition at 750 g /ha measured after 24 days by spray method; type: functional; conditions: in Digitaria adscendens, 576 h, read-out: GI
Echinochloa crus-galli [15] = test: Pre-emergence herbicidal activity against Echinochloa crus-galli (barnyard grass) under greenhouse condition at 750 g /ha measured after 24 days by spray method; type: functional; conditions: 576 h, read-out: GI
Amaranthus retroflexus [16] = test: Pre-emergence herbicidal activity against Amaranthus retroflexus under greenhouse condition at 750 g /ha measured after 24 days by spray method; type: functional; conditions: 576 h, read-out: GI
[17] = test system: Brassica rapa subsp. oleifera; test: Pre-emergence herbicidal activity against Brassica rapa subsp. oleifera under greenhouse condition at 750 g /ha measured after 24 days by spray method; type: functional; conditions: 576 h, read-out: GI
Spirodela polyrhiza [18] = test: Bleaching herbicidal activity in Spirodela polyrhiza fronds cultured in compound-containing in medium assessed as chlorophyll inhibition at 1 ug/ml after 7 days; type: functional; conditions: 168 h
Spirodela polyrhiza [19] = test: Bleaching herbicidal activity in Spirodela polyrhiza fronds cultured in compound-containing in medium assessed as chlorophyll inhibition at 10 ug/ml after 7 days; type: functional; conditions: 168 h
Amaranthus retroflexus [20] = test: Post-emergence herbicidal activity against one-leaf stage Amaranthus retroflexus under greenhouse condition assessed as complete bleaching of leaves at 150 g /ha measured after 24 days by spray method; type: functional, organism-based
Amaranthus retroflexus [21] = test: Post-emergence herbicidal activity against one-leaf stage Amaranthus retroflexus under greenhouse condition assessed as complete bleaching of leaves at 300 g /ha measured after 24 days by spray method; type: functional, organism-based
Amaranthus retroflexus [22] = test: Post-emergence herbicidal activity against one-leaf stage Amaranthus retroflexus under greenhouse condition assessed as complete bleaching of leaves at 600 g /ha measured after 24 days by spray method; type: functional, organism-based
[23] = test system: Brassica rapa subsp. oleifera; test: Post-emergence herbicidal activity against one-leaf stage Brassica rapa subsp. oleifera under greenhouse condition assessed as complete bleaching of leaves at 7.5 g /ha measured after 24 days by spray method; type: functional, organism-based
[24] = test system: Brassica rapa subsp. oleifera; test: Post-emergence herbicidal activity against one-leaf stage Brassica rapa subsp. oleifera under greenhouse condition assessed as complete bleaching of leaves at 15 g /ha measured after 24 days by spray method; type: functional, organism-based
[25] = test system: Brassica rapa subsp. oleifera; test: Post-emergence herbicidal activity against one-leaf stage Brassica rapa subsp. oleifera under greenhouse condition assessed as complete bleaching of leaves at 30 g /ha measured after 24 days by spray method; type: functional, organism-based
[26] = test system: Brassica rapa subsp. oleifera; test: Post-emergence herbicidal activity against one-leaf stage Brassica rapa subsp. oleifera under greenhouse condition assessed as complete bleaching of leaves at 60 g /ha measured after 24 days by spray method; type: functional, organism-based
[27] = test system: Brassica rapa subsp. oleifera; test: Post-emergence herbicidal activity against one-leaf stage Brassica rapa subsp. oleifera under greenhouse condition assessed as complete bleaching of leaves at 75 g /ha measured after 24 days by spray method; type: functional, organism-based
[28] = test system: Brassica rapa subsp. oleifera; test: Post-emergence herbicidal activity against one-leaf stage Brassica rapa subsp. oleifera under greenhouse condition assessed as complete bleaching of leaves at 150 g /ha measured after 24 days by spray method; type: functional, organism-based
[29] = test system: Brassica rapa subsp. oleifera; test: Post-emergence herbicidal activity against one-leaf stage Brassica rapa subsp. oleifera under greenhouse condition assessed as complete bleaching of leaves at 300 g /ha measured after 24 days by spray method; type: functional, organism-based
Amaranthus retroflexus [30] = test: Post-emergence herbicidal activity against one-leaf stage Amaranthus retroflexus under greenhouse condition assessed as complete bleaching of leaves at 15 g /ha measured after 24 days by spray method; type: functional, organism-based
Amaranthus retroflexus [31] = test: Post-emergence herbicidal activity against one-leaf stage Amaranthus retroflexus under greenhouse condition at 7.5 g /ha measured after 24 days by spray method; type: functional; conditions: 576 h, read-out: GI
Amaranthus retroflexus [32] = test: Post-emergence herbicidal activity against one-leaf stage Amaranthus retroflexus under greenhouse condition at 15 g /ha measured after 24 days by spray method; type: functional; conditions: 576 h, read-out: GI
Amaranthus retroflexus [33] = test: Post-emergence herbicidal activity against one-leaf stage Amaranthus retroflexus under greenhouse condition at 30 g /ha measured after 24 days by spray method; type: functional; conditions: 576 h, read-out: GI
Amaranthus retroflexus [34] = test: Post-emergence herbicidal activity against one-leaf stage Amaranthus retroflexus under greenhouse condition at 60 g /ha measured after 24 days by spray method; type: functional; conditions: 576 h, read-out: GI
Amaranthus retroflexus [35] = test: Post-emergence herbicidal activity against one-leaf stage Amaranthus retroflexus under greenhouse condition at 75 g /ha measured after 24 days by spray method; type: functional; conditions: 576 h, read-out: GI
Amaranthus retroflexus [36] = test: Post-emergence herbicidal activity against one-leaf stage Amaranthus retroflexus under greenhouse condition at 150 g /ha measured after 24 days by spray method; type: functional; conditions: 576 h, read-out: GI
Amaranthus retroflexus [37] = test: Post-emergence herbicidal activity against one-leaf stage Amaranthus retroflexus under greenhouse condition at 300 g /ha measured after 24 days by spray method; type: functional; conditions: 576 h, read-out: GI
Amaranthus retroflexus [38] = test: Post-emergence herbicidal activity against one-leaf stage Amaranthus retroflexus under greenhouse condition at 600 g /ha measured after 24 days by spray method; type: functional; conditions: 576 h, read-out: GI
Amaranthus retroflexus [39] = test: Post-emergence herbicidal activity against one-leaf stage Amaranthus retroflexus under greenhouse condition assessed as complete bleaching of leaves at 7.5 g /ha measured after 24 days by spray method; type: functional, organism-based
Amaranthus retroflexus [40] = test: Post-emergence herbicidal activity against one-leaf stage Amaranthus retroflexus under greenhouse condition assessed as complete bleaching of leaves at 30 g /ha measured after 24 days by spray method; type: functional, organism-based
Amaranthus retroflexus [41] = test: Post-emergence herbicidal activity against one-leaf stage Amaranthus retroflexus under greenhouse condition assessed as complete bleaching of leaves at 60 g /ha measured after 24 days by spray method; type: functional, organism-based
Amaranthus retroflexus [42] = test: Post-emergence herbicidal activity against one-leaf stage Amaranthus retroflexus under greenhouse condition assessed as complete bleaching of leaves at 75 g /ha measured after 24 days by spray method; type: functional, organism-based

Cc1cc(-c2cccc(C(F)(F)F)c2)c(Oc2ccc(Cl)c(Cl)c2)nn1
Activity [1]: Active | inhibition of growth at 7.5 g/ha [2]: 58% | inhibition of growth at 15 g/ha [3]: 89% | inhibition of growth at 30 g/ha [4]: 100% | inhibition of growth at 60 g/ha [5]: 100% | inhibition of growth at 75 g/ha [6]: 100% | inhibition of growth at 150 g/ha [7]: 100% | inhibition of growth at 300 g/ha [8]: 100% | inhibition of growth at 600 g/ha [9]: 100% | inhibition of growth at 750 g/ha (Digitaria [10]): 100% | inhibition of growth at 750 g/ha (Echinochloa crus-galli [11]): 87% | inhibition of growth at 750 g/ha (Amaranthus retroflexus [12]): 100% | inhibition of growth at 750 g/ha [13]: 100% | inhibition of growth at 750 g/ha (Digitaria [14]): 6% | inhibition of growth at 750 g/ha (Echinochloa crus-galli [15]): 19% | inhibition of growth at 750 g/ha (Amaranthus retroflexus [16]): 0% | inhibition of growth at 750 g/ha [17]: 27% | inhibition at 1 µg/mL (Spirodela polyrhiza [18]): 93% | inhibition at 10 µg/mL (Spirodela polyrhiza [19]): 96% | Activity (Amaranthus retroflexus [20]): Active | Activity (Amaranthus retroflexus [21]): Active | Activity (Amaranthus retroflexus [22]): Active | Activity [23]: Active | Activity [24]: Active | Activity [25]: Active | Activity [26]: Active | Activity [27]: Active | Activity [28]: Active | Activity [29]: Active | Activity (Amaranthus retroflexus [30]): Active | inhibition of growth at 7.5 g/ha (Amaranthus retroflexus [31]): 32% | inhibition of growth at 15 g/ha (Amaranthus retroflexus [32]): 34% | inhibition of growth at 30 g/ha (Amaranthus retroflexus [33]): 42% | inhibition of growth at 60 g/ha (Amaranthus retroflexus [34]): 47% | inhibition of growth at 75 g/ha (Amaranthus retroflexus [35]): 85% | inhibition of growth at 150 g/ha (Amaranthus retroflexus [36]): 100% | inhibition of growth at 300 g/ha (Amaranthus retroflexus [37]): 100% | inhibition of growth at 600 g/ha (Amaranthus retroflexus [38]): 100% | Activity (Amaranthus retroflexus [39]): Active | Activity (Amaranthus retroflexus [40]): Active | Activity (Amaranthus retroflexus [41]): Active | Activity (Amaranthus retroflexus [42]): Active

Cc1cc(-c2cccc(C(F)(F)F)c2)c(Oc2ccc(Cl)cc2)nn1
Activity [1]: Active | inhibition of growth at 75 g/ha [6]: 65% | inhibition of growth at 150 g/ha [7]: 71% | inhibition of growth at 300 g/ha [8]: 76% | inhibition of growth at 600 g/ha [9]: 80% | inhibition of growth at 750 g/ha (Digitaria [10]): 79% | inhibition of growth at 750 g/ha (Echinochloa crus-galli [11]): 78% | inhibition of growth at 750 g/ha (Amaranthus retroflexus [12]): 94% | inhibition of growth at 750 g/ha [13]: 98% | inhibition of growth at 750 g/ha (Digitaria [14]): 97% | inhibition of growth at 750 g/ha (Echinochloa crus-galli [15]): 85% | inhibition of growth at 750 g/ha (Amaranthus retroflexus [16]): 100% | inhibition of growth at 750 g/ha [17]: 97% | inhibition at 1 µg/mL (Spirodela polyrhiza [18]): 72% | inhibition at 10 µg/mL (Spirodela polyrhiza [19]): 99% | Activity (Amaranthus retroflexus [20]): Active | Activity (Amaranthus retroflexus [21]): Active | Activity (Amaranthus retroflexus [22]): Active | Activity [27]: Active | Activity [28]: Active | Activity [29]: Active | inhibition of growth at 75 g/ha (Amaranthus retroflexus [35]): 45% | inhibition of growth at 150 g/ha (Amaranthus retroflexus [36]): 84% | inhibition of growth at 300 g/ha (Amaranthus retroflexus [37]): 86% | inhibition of growth at 600 g/ha (Amaranthus retroflexus [38]): 90% | Activity (Amaranthus retroflexus [42]): Active
